Laboratory results published in patent US7582681B2, “Synergistic mixtures of 1,2-alkane diols” (Symrise GmbH & Co. KG, priority 2002, dated 2009).

System: Aspergillus niger ATCC 16404
Assay: Test for adequate preservation (European Pharmacopea), 1,2-diols and 1,2-diol mixtures in O/W emulsion
Assay type: cell-based
Conditions: for germ count A. niger: 3% diol(s) in O/W emulsion; for reduction in the number of colony forming units (CFU) to the 0 value: Aspergillus niger, dosage of 3%, 28 days
Protocol: A test for adequate preservation was carried out in accordance with the European Pharmacopea. The test thus consists of the contamination of the formulation, if possible in its final ratio, with a prescribed inoculum of suitable microorganisms, storage of the inoculated formulation at a specific temperature, taking of samples from the vessel at specific intervals and determination of the number of microorganisms in the samples taken in this way. The preserving properties are adequate if, under the conditions of the test, there is a distinct reduction or optionally no increase in the germ count in the inoculated formulations after the prescribed times at the prescribed temperatures. Experimental details of the test procedure are described in the European Pharmacopea (ISBN 3-7692-2768-9; 2001 supplement to the 3rd Edition, page 421-422, chapter 5.1.3). The initial germ count (CFU/g; “0” value) was in the range of 240,000 to 300,000 in the various test series. For the tests for adequate preservation, (a) potentially synergistically active mixtures taken into account and (b), for comparison purposes, the corresponding unmixed 1,2-diols were incorporated in O/W emulsions. […] The variation in the total concentration of 1,2-diols or 1,2-diol mixtures in the O/W emulsions was compensated for by increasing or reducing the water content, so that otherwise identical formulations always comprised 100 parts by weight in total. […] The Kull equation enables the pure substances and the active compound mixtures prepared therefrom to be compared in respect of their antimicrobial activity. With this equation the so-called synergy index (SI), which is a measure for a synergistic activity, but also for a possible antagonistic activity, of a mixture having an antimicrobial action, is determined. A synergistic effect is evident if the SI value determined is less than 1. On the other hand, if an SI of precisely 1 is calculated, there is a pure additive effect of two substances having an antimicrobial action. In the case of an SI value greater than 1, on the other hand, there is a (frequently undesired) antagonistic effect.

SMILES	germ count A. niger (0′-count (initial germ count))	germ count A. niger (24 h)	germ count A. niger (48 h)	germ count A. niger (4 d)	germ count A. niger (7 d)	germ count A. niger (14 d)	germ count A. niger (14 d, listed as 1,2-octanediol)	germ count A. niger (28 d)	reduction in the number of colony forming units (CFU) to the 0 value	germ count A. niger (14 d, listed as 1,2-hexanediol)
CCCCCCC(O)CO (stereo not drawn) [OC3, 1,2-octanediol]	260,000 CFU/ml	55,000 CFU/ml	6,000 CFU/ml	6,000 CFU/ml	1,100 CFU/ml	1,000 CFU/ml	1000 CFU/ml	100 CFU/ml	did not enable a reduction in the number of colony forming units (CFU) to the desired 0 value	–
CCCCC(O)CO (stereo not drawn) [HE3, 1,2-hexanediol]	260,000 CFU/ml	120,000 CFU/ml	120,000 CFU/ml	120,000 CFU/ml	80,000 CFU/ml	28,000 CFU/ml	–	800 CFU/ml	did not enable a reduction in the number of colony forming units (CFU) to the desired 0 value	28000 CFU/ml
